Numbers after ± are expanded uncertainties.
Test: xn = mol fraction of the nth substance listed
Settings: 101 kPa, Liquid

CC1COC(=O)O1 (stereo not given) [4-methyl-1,3-dioxolan-2-one] + CCOS(=O)(=O)[O-].CCn1cc[n+](C)c1
mass density [kg/m3]
Settings	278.15 K	283.15 K	288.15 K	293.15 K	298.15 K	303.15 K	308.15 K
x1 = 0.0266	1250.69 ± 1.1	1247.12 ± 1.1	1243.68 ± 1.1	1240.27 ± 1.1	1236.86 ± 1.1	1233.45 ± 1.1	1230.06 ± 1.1
x1 = 0.0513	1250.41 ± 1.1	1246.82 ± 1.1	1243.39 ± 1.1	1239.97 ± 1.1	1236.53 ± 1.1	1233.11 ± 1.1	1229.69 ± 1
x1 = 0.0755	1250.13 ± 1.1	1246.55 ± 1.1	1243.1 ± 1.1	1239.64 ± 1.1	1236.19 ± 1.1	1232.74 ± 1	1229.3 ± 1
x1 = 0.1231	1249.6 ± 1.1	1246.04 ± 1.1	1242.54 ± 1.1	1239.04 ± 1	1235.55 ± 1	1232.06 ± 1	1228.58 ± 1
x1 = 0.1825	1248.89 ± 1	1245.35 ± 1	1241.79 ± 1	1238.2 ± 1	1234.68 ± 1	1231.13 ± 1	1227.6 ± 0.99
x1 = 0.2548	1248.05 ± 1	1244.41 ± 1	1240.76 ± 1	1237.11 ± 1	1233.49 ± 0.99	1229.88 ± 0.98	1226.27 ± 0.97
x1 = 0.3178	1247.17 ± 1	1243.45 ± 0.99	1239.73 ± 0.98	1236.01 ± 0.98	1232.32 ± 0.97	1228.64 ± 0.96	1224.96 ± 0.95
x1 = 0.3778	1246.4 ± 0.98	1242.61 ± 0.98	1238.81 ± 0.97	1235.04 ± 0.96	1231.27 ± 0.95	1227.52 ± 0.94	1223.78 ± 0.93
x1 = 0.4859	1244.38 ± 0.95	1240.42 ± 0.95	1236.47 ± 0.94	1232.54 ± 0.93	1228.62 ± 0.92	1224.71 ± 0.91	1220.83 ± 0.9
x1 = 0.5725	1242.6 ± 0.93	1238.5 ± 0.92	1234.4 ± 0.91	1230.34 ± 0.91	1226.28 ± 0.9	1222.25 ± 0.89	1218.22 ± 0.88
x1 = 0.6971	1239.08 ± 0.9	1234.73 ± 0.89	1230.4 ± 0.88	1226.09 ± 0.88	1221.79 ± 0.87	1217.52 ± 0.86	1213.25 ± 0.85
x1 = 0.7812	1235.9 ± 0.88	1231.35 ± 0.87	1226.82 ± 0.86	1222.31 ± 0.85	1217.81 ± 0.85	1213.33 ± 0.84	1208.86 ± 0.83
x1 = 0.8427	1232.95 ± 0.87	1228.23 ± 0.86	1223.51 ± 0.85	1218.83 ± 0.84	1214.15 ± 0.83	1209.49 ± 0.82	1204.84 ± 0.81
x1 = 0.8893	1230.36 ± 0.86	1225.48 ± 0.85	1220.62 ± 0.84	1215.78 ± 0.83	1210.95 ± 0.82	1206.14 ± 0.81	1201.34 ± 0.8
x1 = 0.9259	1227.81 ± 0.85	1222.79 ± 0.84	1217.79 ± 0.83	1212.81 ± 0.82	1207.84 ± 0.81	1202.89 ± 0.8	1197.94 ± 0.79
x1 = 0.9554	1225.35 ± 0.84	1220.2 ± 0.83	1215.07 ± 0.82	1209.96 ± 0.81	1204.85 ± 0.8	1199.76 ± 0.79	1194.68 ± 0.78
x1 = 0.9797	1223.22 ± 0.83	1217.97 ± 0.82	1212.73 ± 0.81	1207.51 ± 0.8	1202.3 ± 0.79	1197.09 ± 0.78	1191.9 ± 0.77
x1 = 1	1220.93 ± 0.83	1215.57 ± 0.82	1210.21 ± 0.81	1204.88 ± 0.8	1199.55 ± 0.78	1194.23 ± 0.77	1188.91 ± 0.76

CC(C)=O [acetone] + CCOS(=O)(=O)[O-].CCn1cc[n+](C)c1
x1 = 1
Settings	mass density [kg/m3]
278.15 K	807.75 ± 0.67
283.15 K	802.15 ± 0.68
288.15 K	796.52 ± 0.69
293.15 K	790.86 ± 0.7
298.15 K	785.13 ± 0.71
303.15 K	779.38 ± 0.72
308.15 K	773.58 ± 0.73

CC#N [acetonitrile] + CCOS(=O)(=O)[O-].CCn1cc[n+](C)c1
x1 = 1
Settings	mass density [kg/m3]
278.15 K	798.01 ± 0.68
283.15 K	792.69 ± 0.69
288.15 K	787.33 ± 0.7
293.15 K	781.97 ± 0.71
298.15 K	776.56 ± 0.72
303.15 K	771.14 ± 0.73
308.15 K	765.68 ± 0.74
